Experimental findings from patent US7273880B2, “Selective NPY (Y5) antagonists” (H. Lunbeck A/S, priority 1999, dated 2007) are described below.

Where a name gives a salt, the structure may show the parent alone.

This experiment concerns the target T1, human Y5 receptor (hNPY-5) (Homo sapiens, UniProt Q15761).
T1 construct: expressed in transfected cells; host or cells: mouse fibroblast LM(tk-) cells, e.g. L-hY5-7 (ATCC CRL-11995)
T1 sequence (Q15761 1-445): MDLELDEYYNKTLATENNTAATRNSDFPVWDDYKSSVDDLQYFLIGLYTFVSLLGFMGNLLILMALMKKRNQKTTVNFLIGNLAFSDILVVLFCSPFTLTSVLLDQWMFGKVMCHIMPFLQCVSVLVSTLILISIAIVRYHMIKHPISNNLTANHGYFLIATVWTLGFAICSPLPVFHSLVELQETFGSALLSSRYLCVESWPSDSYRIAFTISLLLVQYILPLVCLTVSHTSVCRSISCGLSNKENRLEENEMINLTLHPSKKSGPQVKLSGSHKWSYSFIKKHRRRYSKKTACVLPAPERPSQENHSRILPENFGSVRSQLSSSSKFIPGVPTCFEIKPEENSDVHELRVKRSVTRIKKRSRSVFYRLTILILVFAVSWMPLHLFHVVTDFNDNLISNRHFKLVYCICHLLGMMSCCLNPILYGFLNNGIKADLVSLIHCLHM
The experiment is described as follows: Radioligand binding to membranes, cloned human Y5 receptor. The settings on record: cloned human NPY Y5 receptor, radioligand competition binding; Tables 1-3; read-out: Ki, nM hNPY-5. The procedure: Binding of the compounds of the present invention to human Y1, Y2, Y4, and Y5 receptors was evaluated using stably transfected 293 or LM(tk-) cells as described above. Stably transfected cell lines which may be used for binding assays include, for example, for the human Y1 receptor, 293-hY1-5 (deposited Jun. 4, 1996, under ATCC Accession No. CRL-12121), for the human Y2 receptor, 293-hY2-10 (deposited Jan. 27, 1994, under ATCC Accession No. CRL-11537), for the human Y4 receptor, L-hY4-3 (deposited Jan. 11, 1995, under ATCC Accession No. CRL-11779), and for human Y5 receptor, L-hY5-7 (deposited Nov. 15, 1995, under ATCC Accession No. CRL-11995). These cell lines were deposited with the American Type Culture Collection (ATCC), 10801 University Blvd., Manassas, Va. 20110-2209, U.S.A. under the provisions of the Budapest Treaty for the International Recognition of the Deposit of Microorganisms for the Purposes of Patent Procedure.
Membranes were harvested from COS-7 cells 48 hours after transient transfection. Adherent cells were washed twice in ice-cold phosphate buffered saline (138 mM NaCl, 8.1 mM Na2HPO4, 2.5 mM KCl, 1.2 mM KH2PO4, 0.9 mM CaCl2, 0.5 mM MgCl2, pH 7.4) and lysed by sonication in ice-cold sonication buffer (20 mM Tris-HCl, 5 mM EDTA, pH 7.7). Large particles and debris were cleared by low speed centrifugation (200×g, 5 min, 4° C.). Membranes were collected from the supernatant fraction by centrifugation (32,000×g, 18 min, 4° C.), washed with ice-cold hypotonic buffer, and collected again by centrifugation (32,000×g, 18 min, 4° C.). The final membrane pellet was resuspended by sonication into a small volume of ice-cold binding buffer (˜1 ml for every 5 plates: 10 mM NaCl, 20 mM HEPES, 0.22 mM KH2PO4, 1.26 mM CaCl2, 0.81 mM MgSO4, pH 7.4). Protein concentration was measured by the Bradford method (Bradford, 1976) using Bio-Rad Reagent, with bovine serum albumin as a standard. Membranes were held on ice for up to one hour and used fresh, or flash-frozen and stored in liquid nitrogen.
Membranes were prepared similarly from 293, LM(tk-), and NIH-3T3 cells. To prepare membranes from baculovirus infected cells, 2×10^7 Sf21 cells were grown in 150 mm tissue culture dishes and infected with a high-titer stock of hY5BB3. Cells were incubated for 2-4 days at 27° C., no CO2 before harvesting and membrane preparation as described above.
Membrane suspensions were diluted in binding buffer supplemented with 0.1% bovine serum albumin to yield an optimal membrane protein concentration so that ^125I-PYY (or alternative radioligand such as ^125I-NPY, ^125I-PYY3-36, or ^125I-[Leu^31Pro^34]PYY) bound by membranes in the assay was less than 10% of ^125I-PYY (or alternative radioligand) delivered to the sample (100,000 dpm/sample=0.08 nM for competition binding assays). ^125I-PYY (or alternative radioligand) and peptide competitors were also diluted to desired concentrations in supplemented binding buffer. Individual samples were then prepared in 96-well polypropylene microtiter plates by mixing 125I-PYY (25 μL) (or alternative radioligand), competing peptides or supplemented binding buffer (25 μL), and finally, membrane suspensions (200 μL). Samples were incubated in a 30° C. water bath with constant shaking for 120 min. Incubations were terminated by filtration over Whatman GF/C filters (pre-coated with 1% polyethyleneimine and air-dried before use), followed by washing with 5 mL of ice-cold binding buffer. Filter-trapped membranes were impregnated with MeltiLex solid scintillant (Wallac, Turku, Finland) and counted for ^125I in a Wallac Beta-Plate Reader. Alternatively, incubations were carried out in GF/C filter plates (pre-coated with 1% polyethyleneimine and air-dried before use), followed by vacuum filtration and three washes of 300 μL of ice-cold binding buffer. 50 μL of UltimaGold (Packard) scintillant were added and counted for ^125I in a Wallac MicroBeta Trilux. […]
(In general: In a radioligand displacement assay an active substance lowers the binding of a labelled ligand.)
A word on the Ki: it is the equilibrium dissociation constant of an inhibitor or competing ligand from its target. For `COc1ccccc1-c1csc(N[C@H]2CC[C@H](CN(C=O)C(C)C)CC2)n1` [Example 96, trans-2-(4-(N-Isopropyl)formamidomethyl)cyclohexyl-amino-4-(2-methoxy)phenylthiazole hydrogen chloride], the Ki turned out to be 56 nM. For the molecule `CC(C)N(C=O)C[C@H]1CC[C@H](Nc2nc3c(s2)CCCc2ccc(F)cc2-3)CC1` [Example 83, trans-1-Aza-9-fluoro-4,5-dihydro-2-(4-(N-isopropyl-formamido)methyl)cyclohexylamino-3-thia-benzo[e]-azulene], the Ki was 12 nM.

For the molecule `COP(=O)(N[C@H]1CC[C@H](CNc2nc3c(s2)CCCc2ccc(F)cc2-3)CC1)OC` [Example 67, trans-N2-(4-Dimethylphosphonylamino)cyclohexylmethyl-9-fluoro-5,6-dihydro-4H-benzo[6,7]cyclohepta[d][1,3]-thiazol-2-amine], the inhibition constant (Ki) is 5.5 nM. In the case of `COCCN(C=O)[C@H]1CC[C@H](CNc2nc(-c3ccccc3)cs2)CC1` [Example 98, trans-N-(2-Methoxyethyl)-N-(4-[(4-phenyl-1,3-thiazol-2-yl)amino]methylcyclohexyl)formamide], the Ki was 125 nM.

Regarding `CC(C)S(=O)(=O)NCCCCCNc1nc2c(s1)CCCc1ccc(F)cc1-2` [Example 13, 1-Aza-9-fluoro-4,5-dihydro-2-(5-isopropyl-sulfonylamino)-pentylamino-3-thia-benzo[e]azulene], the Ki was determined as 132 nM. On to `CC(C)S(=O)(=O)N[C@H]1CC[C@H](CNc2nc3c(s2)CCCc2ccc(F)cc2-3)CC1` [Example 53, trans-1-Aza-9-fluoro-4,5-dihydro-2-{4-isopropyl-sulfonylamino}cyclohexylmethylamino-3-thia-benzo[e]-azulene], for which the Ki is 3.2 nM. On to `COCCN(C=O)C[C@H]1CC[C@H](Nc2nc(-c3ccccc3OC)cs2)CC1` [Example 97], for which the inhibitory constant (Ki) is 335 nM.

With `O=S(=O)(NCCCCNc1nc2c(s1)CCCc1ccc(F)cc1-2)c1cccnc1` [Example 56, 1-Aza-9-fluoro-4,5-dihydro-2-(4-(3-pyridyl)sulfonyl-amino)butylamino-3-thia-benzo[e]azulene], the Ki stood at 26 nM. Turning to `COCCOC(=O)NC[C@H]1CC[C@H](Nc2nc3c(s2)CCCc2ccc(F)cc2-3)CC1` [Example 77, trans-1-Aza-9-fluoro-4,5-dihydro-2-(4-(2-methoxy)-ethoxy-carbonylaminomethyl)cyclohexylamino-3-thia-benzo[e]azulene], the Ki turned out to be 14.6 nM. `COc1cccc2c1OCCc1sc(NC[C@H]3CC[C@H](NS(C)(=O)=O)CC3)nc1-2` [Example 65, trans-N2-(4-Methylsulfonylamino)cyclohexylmethyl-7-methoxy-4,5-dihydro-benzo[2,3]oxepino[4,5-d][1,3]-thiazol-2-amine hydrochloride]: the Ki was found to be 11.6 nM. For `O=S(=O)(NC[C@H]1CC[C@H](Nc2nc3c(s2)CCCc2ccc(F)cc2-3)CC1)c1cccnc1` [Example 59, trans-1-Aza-9-fluoro-4,5-dihydro-2-(4-(3-pyridyl)-sulfonylaminomethyl)cyclohexylamino-3-thia-benzo[e]-azulene], the Ki was 2.3 nM.

As to `CCOC(=O)NC[C@H]1CC[C@H](Nc2nc(-c3ccccc3OC)cs2)CC1` [Example 92, trans-2-(4-Ethoxycarbonylaminomethyl)cyclohexylamino-4-(2-methoxy)phenylthiazole hydrogen chloride], the Ki is 912 nM. As for `O=S(=O)(NC[C@H]1CC[C@H](Nc2nc3c(s2)CCCc2ccc(F)cc2-3)CC1)N1CCOCC1` [Example 76, trans-1-Aza-9-fluoro-4,5-dihydro-2-(4-(4-morpholinyl)-sulfonylaminomethyl)cyclohexylamino-3-thia-benzo[e]azulene], the figure is 4.1 nM; as for `COCC(=O)N[C@H]1CC[C@H](CNc2nc3c(s2)CCOc2ccccc2-3)CC1` [Example 84, N1-{4-[(4,5-dihydrobenzo[2,3]oxepino[4,5-d][1,3]thiazol-2-ylamino)methyl]cyclohexyl}-2-methoxyacetamide], 40 nM. Take `O=S(=O)(NCCCCCNc1nc2c(s1)CCCc1ccc(F)cc1-2)c1cccnc1` [Example 55, 1-Aza-9-fluoro-4,5-dihydro-2-(5-(3-pyridyl)sulfonyl-amino)pentylamino-3-thia-benzo[e]azulene]: the Ki came to 3.4 nM. `CCCN(C=O)[C@H]1CC[C@H](CNc2nc3c(s2)CCOc2ccccc2-3)CC1` [Example 88, N-{4-[(4,5-Dihydrobenzo[2,3]oxepino[4,5-d][1,3]-thiazol-2-ylamino)methyl]cyclohexyl}-N-propyl-formamide]: the Ki stood at 36 nM. As to `CS(=O)(=O)NCC1CCC(Nc2nc3c(s2)COc2ccccc2-3)CC1` (centres unmarked) [Example 70, 2-(4-Methylsulfonylaminomethyl)cyclohexylamino-4H-chromeno[4,3-d]thiazole], the Ki came to 21 nM. Turning to `COCCN(C=O)[C@H]1CC[C@H](CNc2nc3c(s2)CCOc2ccccc2-3)CC1` [Example 86, N-{4-[(4,5-dihydrobenzo[2,3]oxepino[4,5-d][1,3]thiazol-2-ylamino)methyl]cyclohexyl}-N-(2-methoxyethyl)formamide], the Ki was 68 nM. As for `COc1cccc2c1OCCc1sc(N[C@H]3CC[C@H](CNS(C)(=O)=O)CC3)nc1-2` [Example 74, trans-1-Aza-4,5-dihydro-2-(4-methylsulfonylamino-methyl)-cyclohexylamino-7-methoxy-3-thia-benzo[e]-azulene], the Ki turned out to be 37 nM.

With `CCN(C=O)[C@H]1CC[C@H](CNc2nc3c(s2)CCOc2ccccc2-3)CC1` [Example 87, trans-1-Aza-2-(4-(n-(ethyl) formamido)cyclohexyl)methyl-amino-4,5-dihydro-6-oxa-3-thia-benzo[e]azulene], the Ki was determined as 86 nM. Take `CC(C)N(C=O)[C@H]1CC[C@H](CNc2nc(-c3ccccc3)cs2)CC1` [Example 99, trans-N-Isopropyl-N-(4-[(4-phenyl-1,3-thiazol-2-yl)amino]methylcyclohexyl)formamide]: the Ki is 45 nM. As for `CS(=O)(=O)NC[C@H]1CC[C@H](Nc2nc(-c3ccccc3O)cs2)CC1` [Example 95, trans-4-(2-Hydroxy)phenyl-2-(4-methylsulfonylamino-methyl)-cyclohexylaminothiazole], the figure is 106 nM. Regarding `CCN(CC)S(=O)(=O)NCCCCCCNc1nc2c(s1)CCSc1ccccc1-2` [Example 101, N′-[6-(4,5-Dihydrobenzo[2,3]thiepino[4,5-d][1,3]thiazol-2-ylamino)hexyl]-N,N-diethylsulfamide], the Ki amounted to 5.9 nM.
